Earlier results on 2 compounds are cited in US20180064655A1, “Hydroxynorketamine Transdermal Patch” (priority 2016, published 2018).

The conditions of series [1]: in vivo.
The conditions of series [2]: metabolite of ketamine.
For series [3] the following is noted: in vivo. The source holds these as a separate data set.
The mark [4] stands for this setting: following a single administration.

As to `CNC1(c2ccccc2Cl)CCCCC1=O` (stereo not drawn) [Ketamine], under setting [4], the “onset of antidepressant effects” value is “within hours” and the “persistence of antidepressant effects” value is “approximately one”. Further, the “efficacy as an antidepressant” value (in vivo) was “rapid and robust efficacy as an antidepressant”. The “side effects limiting clinical use” value in series [1] was “abuse potential and sensory-dissociation side effects”.

Consider `N[C@@]1(c2ccccc2Cl)CCC[C@@H](O)C1=O` [(2R,6R)-HNK, (2R,6R)-hydroxynorketamine], for which, in series [2], the antidepressant effect entry is reported as “responsible for the antidepressant effect observed with ketamine treatment”. Also, in series [3], the ketamine-related side-effects result was “lacks ketamine-related side-effects”.
